From US6664279B2, “Remedies or preventives for liver diseases containing diaminotrifluoromethylpyridine derivatives” (Ishihara Sangyo Kaisha, Ltd., priority 2000, dated 2003)

What was measured:
[1] = test system: rat liver ischemia reperfusion hepatopathy model; assay: Therapeutic effect on rat liver ischemia reperfusion hepatopathy model; type: in vivo
Description: Therapeutic Effect on Rat Liver Ischemia Reperfusion Hepatopathy Model
The therapeutic effect of the compound 1 on rat hepatopathy model induced by partially subjecting the liver to ischemia reperfusion was examined.
(1) The compound 1 was used as a drug formulation. The formulation composition (content per one vial) was as follows.
(2) Crj:SD (IGS) male rats (7 weeks old) (Charles River Japan, Inc.) were anesthetized with ether, and while maintaining them anesthetized with gas-oxygen fluothane, the above drug formulation of the compound 1 diluted with 5% glucose (Lot. 9I78N, manufactured by Otsuka Pharmaceutical Factory, Inc.) so that the dose would be 10 mg/kg/hr as calculated as anhydride of the compound 1, was subcutaneously administered singly. Then, an osmotic pump (alzet osmotic pump 2001D, ALZA CORPORATION, U.S.A.) in which the above drug formulation of the compound 1 diluted with 5% glucose (Lot. 9I78N, manufactured by Otsuka Pharmaceutical Factory, Inc.) so that the dose would be 0.3 mg/kg/hr as calculated as anhydride of the compound 1 was put, was embedded in the dorsal cervical subcutaneous. To non-treated group rats, 5% glucose alone was administered similarly. […] The abdomen was closed, the rats were awaked, and after 90 minutes, the abdomen was opened up again under the above-described anesthesia, the clamp was removed and the rats were subjected to reperfusion. To pseudo-induced group rats, operation except for the ischemia reperfusion treatment was carried out. The abdomen was closed and the rats were awaked, and 6 hours after the reperfusion, aspartate aminotransferase (AST) and alanine aminotransferase (ALT), lactate dehydrogenase (LDH) and total bilirubin values in the blood serum were measured.

[2] = test system: acetaminophen (APAP) induced mouse hepatopathy model; assay: Therapeutic effect on mouse acetaminophen hepatopathy model; type: in vivo
Description: Therapeutic Effect on Mouse Acetaminophen Hepatopathy Model
The therapeutic effect of N-(2-ethylsulfonylamino-5-trifluoromethyl-3-pyridyl)cyclohexanecarboxamide sodium salt hydrate (hereinafter referred to as compound 1) on acetaminophen (APAP) induced mouse hepatopathy model was examined.
To Crj: CD-1(ICR) male mice (6 weeks old) (Charles River Japan Inc.), APAP (Lot. No. 107H0332, manufactured by Sigma) dissolved with physiological saline (Lot No. 80909D manufactured by Fuso Pharmaceutical Industries, Ltd.) was intraperitoneally administered in an amount of the active ingredient of 300 mg/kg to induce hepatopathy. 3 Hours after the administration of APAP, the compound 1 dissolved in physiological saline was singly administered subcutaneously on the back in an amount of the active ingredient of 10 mg/kg. To non-treated group mice, physiological saline was similarly administered. 6 Hours after the administration of APAP, the blood was collected, and glutamic-oxaloacetic transaminase (GOT) and glutamic-pyruvic transaminase (GPT) values in the blood serum were measured.
In the present test, mice were kept on a fast from 20 hours before the administration of APAP until the completion of the test.

[3] = Crj:SD (IGS) male rats, 90 minutes ischemia of about 70% of liver, 10 mg/kg/hr s.c. singly then 0.3 mg/kg/hr by osmotic pump, 6 hours after reperfusion, N = 10
[4] = Crj:CD-1(ICR) male mice, APAP 300 mg/kg i.p., 10 mg/kg s.c. single dose 3 hours after APAP, blood 6 hours after APAP, N = 5

CCS(=O)(=O)Nc1ncc(C(F)(F)F)cc1NC(=O)C1CCCCC1.O.[Na] [compound 1, N-(2-ethylsulfonylamino-5-trifluoromethyl-3-pyridyl)cyclohexanecarboxamide sodium salt hydrate]
ALT (GPT) in blood serum (mean) [1, 3]: 5436 IU/L
AST (GOT) in blood serum (mean) [1, 3]: 8669 IU/L
LDH in blood serum (mean) [1, 3]: 29601 IU/L
Total bilirubin in blood serum (mean) [1, 3]: 0.299 mg/dL
Effect on hepatopathy (increases in biochemical examination values), in words ([1]; rat ischemia reperfusion hepatopathy model, versus non-treated group): alleviated
GOT in blood serum (mean ± standard deviation) [2, 4]: 530 ± 212 IU/L
GPT in blood serum (mean ± standard deviation) [2, 4]: 807 ± 603 IU/L
Effect on hepatopathy (increases in biochemical examination values), in words ([2]; acetaminophen induced mouse hepatopathy model, 10 mg/kg s.c., versus non-treated group): hepatopathy was alleviated
